Assay results taken from the supplement of paper PMC4932681.

Columns and labels:
T-47D Tam1 [1] = experiment: relative IC50 (midpoint of fitted logistic curve, plateau may be below 50% inhibition; CellTiter-Glo viability); higher = less potent; details: 4-OH-tamoxifen in medium 1 µM; 72 h
Experimental: (§1)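 FIMM FO2B library drugs were plated at 5 concentrations spanning a 10,000-fold range in 384-well plates. Cells were incubated for 72 h at 37 °C and viability was read by CellTiter-Glo, normalised to DMSO (0% inhibition) and 100 µM benzethonium chloride (100% inhibition). IC50 values come from logistic dose-response fits (Breeze pipeline). Tamoxifen-resistant lines and the 'in 1µM tamoxifen' parental arms were tested in medium with 1 µM 4-OH-tamoxifen.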

T-47D Tam2 [2] = experiment: as above; details: 4-OH-tamoxifen in medium 1 µM; 72 h
Experimental: as §1

BT-474 [3] = experiment: as above; details: 72 h
Experimental: as §1

MCF-7 [4] = experiment: as above; details: 72 h
Experimental: as §1

MCF-7 Tam1 [5] = experiment: drug sensitivity score (DSS) (DSS (dimensionless)); higher = more sensitive; extreme values may be limits of the assay; details: 4-OH-tamoxifen in medium 1 µM; 72 h
Experimental: (§2)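 FIMM FO2B library drugs were tested at 5 concentrations (10,000-fold range) for 72 h, with CellTiter-Glo viability normalised to DMSO and benzethonium chloride controls. The Drug Sensitivity Score (DSS) is computed from the fitted logistic dose-response curve (area-based; 0 = inactive). Resistant lines and the 'in 1µM tamoxifen' arms were tested in 1 µM 4-OH-tamoxifen.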

T-47D Tam1 [6] = experiment: as above; details: 4-OH-tamoxifen in medium 1 µM; 72 h
Experimental: as §2

BT-474 Tam1 [7] = experiment: as above; details: 4-OH-tamoxifen in medium 1 µM; 72 h
Experimental: as §2

T-47D Tam2 [8] = experiment: as above; details: 4-OH-tamoxifen in medium 1 µM; 72 h
Experimental: as §2

ZR-75-1 Tam1 [9] = experiment: as above; details: 4-OH-tamoxifen in medium 1 µM; 72 h
Experimental: as §2

T-47D [10] = experiment: as above; details: 72 h
Experimental: as §2

BT-474 Tam2 [11] = experiment: as above; details: 4-OH-tamoxifen in medium 1 µM; 72 h
Experimental: as §2

BT-474 [12] = experiment: as above; details: 72 h
Experimental: as §2

MCF-7 [13] = experiment: as above; details: 72 h
Experimental: as §2

ZR-75-1 [14] = experiment: as above; details: 72 h
Experimental: as §2

ZR-75-1 Tam2 [15] = experiment: as above; details: 4-OH-tamoxifen in medium 1 µM; 72 h
Experimental: as §2

BT-474 Tam1 [16] = experiment: relative IC50 (midpoint of fitted logistic curve, plateau may be below 50% inhibition; CellTiter-Glo viability); higher = less potent; details: 4-OH-tamoxifen in medium 1 µM; 72 h
Experimental: as §1

ZR-75-1 Tam1 [17] = experiment: as above; details: 4-OH-tamoxifen in medium 1 µM; 72 h
Experimental: as §1

BT-474 Tam2 [18] = experiment: as above; details: 4-OH-tamoxifen in medium 1 µM; 72 h
Experimental: as §1

MCF-7 Tam1 [19] = experiment: as above; details: 4-OH-tamoxifen in medium 1 µM; 72 h
Experimental: as §1

T-47D [20] = experiment: as above; details: 72 h
Experimental: as §1

ZR-75-1 [21] = experiment: as above; details: 72 h
Experimental: as §1

ZR-75-1 Tam2 [22] = experiment: as above; details: 4-OH-tamoxifen in medium 1 µM; 72 h
Experimental: as §1

| Compound | relative IC50 (T-47D Tam1 [1]) | relative IC50 (T-47D Tam2 [2]) | relative IC50 (BT-474 [3]; 4-OH-tamoxifen in medium 0 µM) | relative IC50 (MCF-7 [4]; 4-OH-tamoxifen in medium 0 µM) | relative IC50 (MCF-7 [4]; 4-OH-tamoxifen in medium 1 µM) | relative IC50 (BT-474 [3]; 4-OH-tamoxifen in medium 1 µM) | drug sensitivity score (MCF-7 Tam1 [5]) | drug sensitivity score (T-47D Tam1 [6]) | drug sensitivity score (BT-474 Tam1 [7]) | drug sensitivity score (T-47D Tam2 [8]) | drug sensitivity score (ZR-75-1 Tam1 [9]) | drug sensitivity score (T-47D [10]; 4-OH-tamoxifen in medium 0 µM) | drug sensitivity score (T-47D [10]; 4-OH-tamoxifen in medium 1 µM) | drug sensitivity score (BT-474 Tam2 [11]) | drug sensitivity score (BT-474 [12]; 4-OH-tamoxifen in medium 0 µM) | drug sensitivity score (BT-474 [12]; 4-OH-tamoxifen in medium 1 µM) | drug sensitivity score (MCF-7 [13]; 4-OH-tamoxifen in medium 0 µM) | drug sensitivity score (MCF-7 [13]; 4-OH-tamoxifen in medium 1 µM) | drug sensitivity score (ZR-75-1 [14]; 4-OH-tamoxifen in medium 0 µM) | drug sensitivity score (ZR-75-1 [14]; 4-OH-tamoxifen in medium 1 µM) | drug sensitivity score (ZR-75-1 Tam2 [15]) | relative IC50 (BT-474 Tam1 [16]) | relative IC50 (ZR-75-1 Tam1 [17]) | relative IC50 (BT-474 Tam2 [18]) | relative IC50 (MCF-7 Tam1 [19]) | relative IC50 (T-47D [20]; 4-OH-tamoxifen in medium 0 µM) | relative IC50 (ZR-75-1 [21]; 4-OH-tamoxifen in medium 0 µM) | relative IC50 (ZR-75-1 [21]; 4-OH-tamoxifen in medium 1 µM) | relative IC50 (ZR-75-1 Tam2 [22]) | relative IC50 (T-47D [20]; 4-OH-tamoxifen in medium 1 µM) |
| --- | --- | --- | --- | --- | --- | --- | --- | --- | --- | --- | --- | --- | --- | --- | --- | --- | --- | --- | --- | --- | --- | --- | --- | --- | --- | --- | --- | --- | --- | --- |
| CC[C@@H]1C(=O)N(C)c2cnc(Nc3ccc(C(=O)NC4CCN(C)CC4)cc3OC)nc2N1C1CCCC1 [BI 2536] | 0.0678 µM | 0.0754 µM | 0.0285 µM | 0.109 µM |  | 0.0204 µM | 0 | 3.5 | 1.24 | 4.25 | 1 | 3.7 | 0.711 | 0.933 | 3.73 | 7.89 | 3.44 | 10.1 | 2.89 | 2.08 | 1.18 |  |  |  |  |  |  |  |  |  |
| CC(O)(CS(=O)(=O)c1ccc(F)cc1)C(=O)Nc1ccc(C#N)c(C(F)(F)F)c1 (stereo not drawn) [Bicalutamide] | > 10 µM |  | > 10 µM | > 10 µM | > 10 µM | > 10 µM | 0 | 0 | 0 | 0.0904 | 0 | 0 | 0 | 0 | 0 | 0 | 0 | 0 | 0 | 0 | 0 | > 10 µM | > 10 µM | > 10 µM | > 10 µM | > 10 µM | > 10 µM | > 10 µM | > 10 µM |  |
| CCC/C=C/C=C/C(=O)O[C@H]1/C(=C/C(=O)OC)C[C@H]2C[C@H]([C@@H](C)O)OC(=O)C[C@H](O)C[C@@H]3C[C@H](OC(C)=O)C(C)(C)[C@](O)(C[C@@H]4C/C(=C/C(=O)OC)C[C@H](/C=C/C(C)(C)[C@]1(O)O2)O4)O3 [Bryostatin 1] |  | > 0.1 µM | > 0.1 µM |  |  | > 0.1 µM | 1.73 | 0.0014 | 0 | 0 | 1.05 | 0 | 0 | 0 | 0 | 0 | 1.22 | 0.563 | 0.213 | 0 | 0 | > 0.1 µM |  | > 0.1 µM |  | > 0.1 µM |  | > 0.1 µM | > 0.1 µM | > 0.1 µM |
| O=P1(N(CCCl)CCCl)NCCCO1 (stereo not drawn) [Clafen (Cyclophosphamide, Endoxan)] | > 40 µM |  | > 40 µM | > 40 µM |  | > 40 µM | 0 | 0 | 0 | 0.114 | 0 | 0 | 0 | 0 | 0 | 0 | 0 | 0.034 | 0 | 0 | 0 | > 40 µM | > 40 µM | > 40 µM | > 40 µM | > 40 µM | > 40 µM | > 40 µM | > 40 µM | > 40 µM |

Now from value to compound, other results behind:

| relative IC50 (T-47D Tam1 [1]) | relative IC50 (T-47D Tam2 [2]) | relative IC50 (BT-474 [3]; 4-OH-tamoxifen in medium 0 µM) | relative IC50 (MCF-7 [4]; 4-OH-tamoxifen in medium 0 µM) | relative IC50 (MCF-7 [4]; 4-OH-tamoxifen in medium 1 µM) | Compound | relative IC50 (BT-474 [3]; 4-OH-tamoxifen in medium 1 µM) | drug sensitivity score (MCF-7 Tam1 [5]) | drug sensitivity score (T-47D Tam1 [6]) | drug sensitivity score (BT-474 Tam1 [7]) | drug sensitivity score (T-47D Tam2 [8]) | drug sensitivity score (ZR-75-1 Tam1 [9]) | drug sensitivity score (T-47D [10]; 4-OH-tamoxifen in medium 0 µM) | drug sensitivity score (T-47D [10]; 4-OH-tamoxifen in medium 1 µM) | drug sensitivity score (BT-474 Tam2 [11]) | drug sensitivity score (BT-474 [12]; 4-OH-tamoxifen in medium 0 µM) | drug sensitivity score (BT-474 [12]; 4-OH-tamoxifen in medium 1 µM) | drug sensitivity score (MCF-7 [13]; 4-OH-tamoxifen in medium 0 µM) | drug sensitivity score (MCF-7 [13]; 4-OH-tamoxifen in medium 1 µM) | drug sensitivity score (ZR-75-1 [14]; 4-OH-tamoxifen in medium 0 µM) | drug sensitivity score (ZR-75-1 [14]; 4-OH-tamoxifen in medium 1 µM) | drug sensitivity score (ZR-75-1 Tam2 [15]) | relative IC50 (BT-474 Tam1 [16]) | relative IC50 (ZR-75-1 Tam1 [17]) | relative IC50 (BT-474 Tam2 [18]) | relative IC50 (MCF-7 Tam1 [19]) | relative IC50 (T-47D [20]; 4-OH-tamoxifen in medium 0 µM) | relative IC50 (ZR-75-1 [21]; 4-OH-tamoxifen in medium 0 µM) | relative IC50 (ZR-75-1 [21]; 4-OH-tamoxifen in medium 1 µM) | relative IC50 (ZR-75-1 Tam2 [22]) | relative IC50 (T-47D [20]; 4-OH-tamoxifen in medium 1 µM) |
| --- | --- | --- | --- | --- | --- | --- | --- | --- | --- | --- | --- | --- | --- | --- | --- | --- | --- | --- | --- | --- | --- | --- | --- | --- | --- | --- | --- | --- | --- | --- |
|  | > 10 µM | > 10 µM | > 10 µM | > 10 µM | C=C(c1ccc(C(=O)O)cc1)c1cc2c(cc1C)C(C)(C)CCC2(C)C [Bexarotene] |  | 3.15 | 3.44 | 0 | 0 | 0 | 0.69 | 0.469 | 0 | 0 | 0.345 | 0 | 0 | 0.367 | 0.925 | 0.973 | > 10 µM | > 10 µM | > 10 µM |  |  |  |  |  |  |
| > 50 µM |  | > 50 µM |  | > 50 µM | O=S(=O)(c1cccc2cnccc12)N1CCCNCC1 [Fasudil  (HA-1077)] | > 50 µM | 0 | 1.67 | 6.87 | 1.06 | 0 | 0 | 0.739 | 6.54 | 1.03 | 5.24 | 0.328 | 0 | 0 | 0 | 0 | > 50 µM | > 50 µM | > 50 µM | > 50 µM | > 50 µM | > 50 µM | > 50 µM | > 50 µM | > 50 µM |
| > 10 µM |  | > 10 µM | > 10 µM |  | CC(C)C(=O)Nc1ccc([N+](=O)[O-])c(C(F)(F)F)c1 [Flutamide] | > 10 µM | 0 | 0 | 0 | 0.0387 | 0 | 0 | 0 | 0 | 0 | 0 | 0 | 0.814 | 0 | 0 | 0 | > 10 µM | > 10 µM | > 10 µM | > 10 µM | > 10 µM | > 10 µM | > 10 µM | > 10 µM | > 10 µM |
